In patent US6140091A, “Anti-idiotype vaccines to elicit catalytic antibodies” (Boston Biomedical Research Institute, priority 1998, dated 2000):

How the values were obtained:
[1] = system: mouse myeloma catalytic antibody MOPC 167 (IgA); assay: MOPC 167 catalyzed acetylthiocholine hydrolysis (esterase activity, Ellman's reagent); assay type: biochemical; conditions: acetylthiocholine as substrate; analog concentration not given
Text: It was recognized that the phosphocholine moiety might serve as a transition state analog for ester hydrolysis according to the scheme shown in FIG. 5. MOPC 167 was therefore tested for esterase activity using acetylthiocholine as a substrate and Ellman's reagent (E-ss-E) for the detection of thiol production (Izadyar et al., Proceedings of the National Academy of Sciences of the United States of America 90: 8876-80 (1993)).
Analysis of the Lineweaver-Burk plot for MOPC 167 catalyzed acetylthiocholine hydrolysis (FIG. 7) gave a Michaelis constant, km =627 μM and catalytic constant, kcat =0.25 min^-1 which were close to the values measured for carbonate ester hydrolysis (Pollack et al., Science 234: 1570-1573 (1986)). However, since spontaneous hydrolysis of this substrate is low, kuncat =4×10^-5 min^-1, the kcat /kuncat =6,000 is about 10-fold greater than that recorded for MOPC 167 catalysis of the carbonate ester reaction. That rate enhancement should be increased by using idiotypic mimicry.

[2] = system: MOPC 167 catalytic antibody (binding of anti-idiotype antibody 1F1); assay: Competitive ELISA using the free transition state analog: binding of anti-Id 1F1 to MOPC 167; design: species or system mouse; conditions: 10 mM TS analog present
Protocol: (§1) The first competitive ELISA uses the MOPC 167 catalytic antibody adsorbed onto microtitre plate wells. This assay measures the blocking effect of the p-nitrophenylphosphorylcholine transition state analog on the binding of anti-idiotype antibodies to MOPC 167 (FIG. 2, A versus B).
(§2) A true combining site-reactive anti-idiotype antibody will be prevented from interacting with MOPC 167 if this assay is performed in the presence of an excess of the transition state analog because that analog will preoccupy the catalytic combining site (FIG. 2, B). Since the anti-idiotype is blocked from attaching to MOPC 167 and will subsequently wash away, a reduced signal is obtained after the peroxidase-labeled, γ-specific anti-mouse IgG reagent and its substrate are added (compare FIG. 2, A, unblocked control and B, transition state analog blockade).
(§3) Binding of 4G4 and 1F1 to MOPC 167 was inhibited by 67% and 70% respectively when 10 mM p-nitrophenylphosphorylcholine TS analog was present.

[3] = system: MOPC 167 catalytic antibody (binding of anti-idiotype antibody 4G4); assay: Competitive ELISA using the free transition state analog: binding of anti-Id 4G4 to MOPC 167; design: species or system mouse; conditions: 10 mM TS analog present
Protocol: as §1, §2, §3

[4] = molecular target: mouse myeloma catalytic antibody MOPC 167 (IgA); conditions: from Pollack et al., Science 234: 1570-1573 (1986); cited from earlier work

C[N+](C)(C)CCOP(=O)([O-])Oc1ccc([N+](=O)[O-])cc1 [p-nitrophenylphosphorylcholine]
blockage of esterase activity by the non-cleavable transition state analog [1]: almost completely blocked
inhibition of binding of 1F1 to MOPC 167 [2]: 70%
inhibition of binding of 4G4 to MOPC 167 [3]: 67%
affinity Ka [4]: ~ 10^6 M^-1
